≈ marks a conversion by molar mass, not a printed value. Read-outs that look alike come from different tables or passages of the source.
Legend:
C. acnes (ATCC No. 6919) = assay: Growth inhibition of C. acnes in Fluid Thioglycollate culture tubes; format: cell-based, Corynebacterium acnes; details: for MIC: Cutibacterium acnes, read-out: Inhibitory Concentration at 72 Hours; for Effect on growth of C. acnes: at 200 μg/ml.
Method: Culture tubes are prepared containing 10 ml. of freshly prepared Difco Fluid Thioglycollate medium with agar and indicator. […] Each tube is inoculated with 0.2 ml. of a 48 hour culture of C. acnes (ATCC No. 6919), and the tubes are inspected at 24 hour intervals. Incubation at 37° C.

[1] = Double-blind crossover study of 5% oleic acid diethanolamide gel on the face, forehead surface lipids; format: in vivo, human subjects
From the text: The subjects were selected on the basis of having a higher than 20 % free fatty acid content in their individual total sebum. None were on systemic antibiotic therapy during the course of this study.
The subjects were instructed to wash three times daily with Ivory soap, immediately after rinsing and drying the face to apply sufficient medication (active agent or placebo) to cover the entire face with the exception of the eye and cheekbone areas, and to gently massage the medication into the skin. Each treatment was continued for the last 6 weeks of the study, no medication being used, however, during the two-week no-treatment period. No other therapy was permitted on the face during the course of the study. No medicated soaps or shampoos, oily hair dressings or any hair sprays were permitted. Cosmetics other than lipstick and eyeshadow were not to be applied on the days of sebum collection. On days of sebum collection, the forehead was not to be washed, wiped, or touched in the 6 hours between the time of cleansing and the time of sebum collection.
Twice a week during the first two weeks of the study, a forehead sample of surface lipids were obtained from each subject and measured for total weight and free fatty acids. No medication or placebo therapy was employed during this two-week period. These samples from each subject constitute the baseline data for this study. Twice a week for the next 6 weeks, further surface lipid samples were taken from each subject and analyzed. In all cases, the surface lipid samples were collected by drawing sebum from both the left and right sides of the subject's forehead.

[2] = biological target: T1, crude enzyme from cultures of Corynebacterium acnes (ATCC No. 6919) (lipolytic enzymes) (Cutibacterium acnes, UniProt Q59644); assay: Inhibition of triolein hydrolysis by Corynebacterium acnes lipolytic enzyme (radiolabelled triolein, TLC of free oleic acid); format: biochemical; details: 60 minutes at room temperature, pH 7.1 phosphate buffer, triolein 2mM; read-out: Concentration Causing 50% Inhibition of Triolein (2mM) Hydrolysis
T1 construct: crude ethanol-acetic acid precipitate of three-day cultures, Sephadex G-25 and G-100 fractions
Method: A 1 ml. aliquot of glyceryl trioleate-(9,10)T is separated on TLC (silica gel) in hexane-ether-acetic acid (70:30:1) and the area corresponding to pure triolein is eluted. The radioactive material is diluted with cold, previously purified triolein (8.8639 g.) in 500 ml. of benzene. The resulting solution is 20mM in triolein.
The crude enzyme prepared by ethanol-acetic acid precipitation from three day cultures of Corynebacterium acnes (ATCC No. 6919) is passed successively through Sephadex G-25 and G-100 columns, and the concentrate is diluted to 250 ml. for use in the assay described below.
An emulsion is prepared by evaporating 5.70 ml. of the benzene solution, prepared in Example 1 above; 6 ml. of 10% gum arabic in water and 3.4 ml. of 0.05M phosphate buffer (pH 7.1) are added, and the mixture is sonicated for three 20 second intervals. Aliquots (0.7 ml.) containing […] emulsified triolein are added to each of 10 1/6 dram vials for each compound to be assayed.
Vial No. 1 receives an additional 0.3 ml. buffer at time 0, and acts as 0 control. […]
The hydrolysis is allowed to proceed for 60 minutes at room temperature, after which time, the vials are transferred to a silicone oil bath and maintained at 95° C. […] The areas corresponding to free oleic acid (after visualization with iodine vapor) are scraped directly into scintillation vials and counted. […]

[3] = ATCC6919, 72 hours, 37° C., Difco Fluid Thioglycollate medium
[4] = 5% gel of Example 8, topical three times daily, two-week treatment, 21 subjects

T1 sequence (Q59644 entry or part of it): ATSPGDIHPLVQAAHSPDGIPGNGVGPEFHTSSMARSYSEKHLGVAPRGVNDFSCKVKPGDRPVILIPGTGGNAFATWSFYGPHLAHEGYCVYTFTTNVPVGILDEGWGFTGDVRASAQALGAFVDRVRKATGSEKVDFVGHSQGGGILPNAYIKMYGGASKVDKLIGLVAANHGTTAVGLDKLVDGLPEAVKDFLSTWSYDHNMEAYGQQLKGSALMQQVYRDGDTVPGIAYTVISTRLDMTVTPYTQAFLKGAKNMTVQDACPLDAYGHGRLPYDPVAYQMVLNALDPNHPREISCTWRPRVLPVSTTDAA

With `CCCCCCCCCCCCCCCC(=O)N(CCO)CCO` [Palmitic acid diethanolamide] the MIC (C. acnes (ATCC No. 6919); [3]) was ~6.25 µg/mL (≈ 18.2 µM).
In the case of `CCCCCCCC/C=C\CCCCCCCC(=O)N(CCO)CCO` [Oleic acid diethanolamide], the MIC (C. acnes (ATCC No. 6919); [3]) is reported as ~12.5 µg/mL (≈ 33.8 µM), the “free fatty acid values, average lowering versus placebo” value [1, 4] is reported as 11% and the “total sebum values, average lowering versus placebo” value [1, 4] is reported as 8%. For the same compound, the “carryover effect upon total sebum level” value ([1]; 5% gel, crossover study) was “no indication of a carryover effect”, the “overall reduction of average free fatty acid content, end of active treatment versus immediately prior to treatment” value ([1]; 5% gel, two-week treatment) was “approximately 20%” and the “Maximum reduction in free fatty acid levels, subject two” value ([1]; 5% gel, two-week treatment, subject two) was 78%. The “duration of carryover effect upon free fatty acid levels after termination of use” value ([1]; subjects given active agent before placebo) was “at least two weeks”.
Work on `CCCCCCCCCCCC(=O)N(CCO)CCO` [Lauric acid diethanolamide] yielded an MIC (C. acnes (ATCC No. 6919); ATCC6919, 72 h) of ~12.5 µg/mL (≈ 43.5 µM).
For `CCCCCCCC/C=C\CCCCCCCC(=O)OCC(COC(=O)CCCCCCC/C=C\CCCCCCCC)OC(=O)CCCCCCC/C=C\CCCCCCCC` [Triolein, reference compound], the “Effect on growth of C. acnes” value (C. acnes (ATCC No. 6919); 72 hours) was “growth stimulatory”.
Compound `CCCCCCCCCCCCCC(=O)N(CCO)CCO` [Myristic acid diethanolamide] has an MIC (C. acnes (ATCC No. 6919); [3]) of ~6.25 µg/mL (≈ 19.8 µM).
`CC(C)CCCCCCCCCCCCCCC(=O)N(CCO)CCO` [Isostearic acid diethanolamide] gave an MIC (C. acnes (ATCC No. 6919); [3]) of ~12.5 µg/mL (≈ 33.6 µM).
N-morpholinooleamide showed an IC50 [2] of 700 µM.
In the case of `CCCCCCCC/C=C\CCCCCCCC(=O)O` [Oleic acid, reference compound], the “Effect on growth of C. acnes” value (C. acnes (ATCC No. 6919); 72 hours) is reported as “growth stimulatory”.
For `C=CCCCCCCCCC(=O)N(CCO)CCO` [Undecylenic diethanolamide, reference compound], the MIC (C. acnes (ATCC No. 6919); [3]) was > 300 µg/mL.

From patent US3987198A, “Method for lowering the free fatty acid content in sebum using certain fatty acid amides” (Syntex (U.S.A.) Inc., priority 1975, dated 1976)
